# Measured values reported in patent US20090054403A1, “Treatment of Post-Traumatic Stress Disorder” (priority 2007, published 2009).
# Tests used:
# [1] = system: body core temperature; assay: Body core temperature during 10 day chronic dosing; conditions: b.i.d. oral: nepicastat 5, 15, 50 mg/kg; SKF-102698 50 mg/kg; clonidine 20 ug/kg; d-amphetamine 2 mg/kg; days 1, 5, 10
# Experimental: The effects of chronic dosing of nepicastat were examined. Between three and thirteen days prior to the first dosing day the rats were placed inside the startle apparatus and after a five minute acclimation period they were presented with a 118 dB noise burst on average once a minute (a variable inter-trial interval ranging between 30 and 90 seconds will be used) for 20 minutes. The startle responses were measured and a mean for the last twenty startle response was calculated for each rat.
# Rat body core temperatures were obtained by inserting the rectal probe 2 cm into the colon of each rat. Each rat's body core temperature was measured three times and the average of the three reading was calculated. Body core temperature readings were obtained immediately prior to the ten day chronic dosing schedule (to obtain a baseline), and three and half hour after the morning daily dose of nepicastat, and SKF-102698, and 15 minutes prior to the daily administration of clonidine and d-amphetamine, on dosing days one, five and ten. […] Both clonidine (an alpha2 agonist), and d-amphetamine (a dopamine releaser) were used as the positive controls for this assay.
# An overall one-way ANOVA with a main effect for treatment was performed at each time on the change from baseline for each animal. Subsequent t-tests were performed for each comparison of interest.
# [2] = target: T1, bovine DBH (Bos taurus, UniProt P15101); assay: Bovine DBH inhibition kinetics, [14C]tyramine radioactive method; assay type: biochemical
# T1 construct: Bovine DBH from adrenal glands was obtained from Sigma Chemicals; purchased Sigma Chemicals (St Louis, Mo.); host or cells: bovine adrenal glands
# Experimental: Enzyme Assay by Radioactive Method. Enzymatic activity was assayed using [^14C]tyramine as substrate and a C18 column to separate the product. The assay was performed in […] volume containing 100 mM NaAc, pH 5.2, 10 mM fumaric acid, 0.5 μM CuSO4, 4 mM ascorbic acid, 0.1 mg/ml catalase and various concentrations of tyramine. The total counts of each reaction was ˜15,000 cpm. Bovine DBH (0.18 ng for each reaction) was mixed with tyramine and inhibitor in the reaction buffer at 37° C. The reaction was initiated by the addition of ascorbate/catalase mixture and was incubated at 37° C. for 30 minutes. The reaction was stopped by the addition of […] of 25 mM EDTA, 50 mM KH2PO4, pH 2.3. Entire mixture was loaded to a C18 light load column (two combined into one) that was pre-washed with MeOH and equilibrated with 50 mM KH2PO4, pH 2.3. Elution into scintillation vials was carried out with 1 ml of KH2PO4, pH 2.3 buffer twice, followed by 2 ml of the same buffer. ReadySafe scintillation fluid (16 ml) was added to the scintillation vials and the samples were counted for ^14C radioactivity.
# Nepicastat concentrations of 0, 1, 2, 4, 8 nM were used to study inhibition kinetics at the following tyramine concentrations: 0.5, 1, 2, 3, 4 mM. […] Km′ was calculated from the slopes and Y intercepts and linear regression was used to obtain Ki value.
# [3] = system: tissue norepinephrine and dopamine levels; assay: Tissue catecholamines in iodine-deficient rats after 10 days b.i.d. dosing; assay type: in vivo, Sprague-Dawley rats; conditions: day 10; for dopamine/norepinephrine ratio vs vehicle, mesenteric artery: hydrochloride
# Experimental: Male Sprague-Dawley rats, weighing 180-200 grams, were fed an iodine deficient diet (Purina, 5891C, Lot 1478, 0.066±0.042 mg iodine/kg sample) ad libitum 14 days prior to treatment. Animals were weighed and randomly assigned to one of the following treatment groups (n=12 per group): Nepicastat at 2.0 mg/kg, Nepicastat at 6.2 mg/kg, R, Methimazole at 1 mg/kg, or vehicle at 1 ml/kg. Each group of rats was dosed orally in the evening and the following morning, approximately 12 hours apart, for 10 consecutive days.
# At four hours after the second dose, on day 10, rats were anesthetized with halothane, decapitated, and the cortex, striatum, and mesenteric artery were harvested and weighed. Tissue samples were not harvested from the methimazole groups as they only served as positive controls for determination of thyroid function. The mesenteric artery, cortex, and striatum were immediately placed in 0.4M iced perchloric acid and analyzed for norepinephrine and dopamine levels the same day using HPLC.
# To statistically evaluate changes in T3 and T4 levels, a change from baseline was calculated from the day-3 time point. A non-parametric two-way within subject analysis of variance (ANOVA) was conducted. Also a one-way ANOVA was performed to detect if a significant difference from control occurred. Pairwise analyses between controls and each treatment group were carried out using Fisher's LSD strategy to control the experiment-wise error rate. For statistical analysis of catecholamine levels, a one-way ANOVA with factor DOSE was performed. Pairwise analyses between treated and controls at each dose were carried out using Fisher's LSD strategy to control the experiment-wise error rate.
# [4] = system: blood pressure; assay: Blood pressure in conscious, restrained normotensive rats; assay type: in vivo, Wistar-Kyoto rats; conditions: 10 mg/kg, 4 hours after dosing
# [5] = system: mice; assay: Acute toxicity study, single oral doses; assay type: in vivo; conditions: single oral doses of 250, 1000, or 2500 mg/kg
# Experimental: Dose selection was based on an acute toxicity study in which mice were administered single oral doses of 250, 1000, or 2500 mg/kg of Nepicastat.
# [6] = system: dopamine/norepinephrine ratio; assay: Dose response of tissue dopamine/norepinephrine ratio 6 hours after a single oral dose; assay type: in vivo, Sprague-Dawley rats
# [7] = system: aortic contractile response to phenylephrine; assay: Aortic contractile response in vitro to phenylephrine after 21 days treatment; assay type: in vivo, SHR; conditions: 10 mg/kg p.o. daily for 21 days
# [8] = system: plasma renin activity; assay: Plasma renin activity after 5 days oral dosing; assay type: in vivo, SHR; conditions: 30 and 100 mg/kg/d p.o. for 5 days
# [9] = system: heart rate, systolic blood pressure; assay: Heart rate and tail cuff systolic blood pressure, 21 days daily treatment; assay type: in vivo, SHR; conditions: 1 and 10 mg/kg p.o. for 21 days
# T1 sequence (P15101 whole entry): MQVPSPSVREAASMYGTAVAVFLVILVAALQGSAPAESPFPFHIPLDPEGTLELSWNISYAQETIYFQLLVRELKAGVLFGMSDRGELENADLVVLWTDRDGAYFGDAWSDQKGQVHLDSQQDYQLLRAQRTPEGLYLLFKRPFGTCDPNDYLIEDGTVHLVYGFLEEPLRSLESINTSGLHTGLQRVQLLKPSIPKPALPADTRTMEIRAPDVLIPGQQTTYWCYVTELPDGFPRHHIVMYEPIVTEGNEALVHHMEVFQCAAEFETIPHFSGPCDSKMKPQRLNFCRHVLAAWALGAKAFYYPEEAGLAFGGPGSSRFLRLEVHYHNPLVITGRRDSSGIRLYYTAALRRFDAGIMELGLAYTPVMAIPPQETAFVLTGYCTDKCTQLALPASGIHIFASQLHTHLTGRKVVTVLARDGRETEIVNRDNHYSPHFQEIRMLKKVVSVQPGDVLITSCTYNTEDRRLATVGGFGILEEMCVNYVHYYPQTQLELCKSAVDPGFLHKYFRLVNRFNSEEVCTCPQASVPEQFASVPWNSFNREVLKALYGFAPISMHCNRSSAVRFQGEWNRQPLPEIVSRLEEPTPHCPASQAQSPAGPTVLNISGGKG
Structure (SMILES),body core temperature [1],"type of inhibition ([2]; nepicastat 1-8 nM, tyramine 0.5-4 mM)","Ki ([2]; vs tyramine, linear regression of apparent Km)","norepinephrine levels vs vehicle, cortex ([3]; 2.0 and 6.2 mg/kg b.i.d.)","norepinephrine levels vs vehicle, mesenteric artery ([3]; 2.0 and 6.2 mg/kg b.i.d.)","norepinephrine levels vs vehicle, striatum ([3]; 2.0 and 6.2 mg/kg b.i.d.)","dopamine/norepinephrine ratio vs vehicle, mesenteric artery ([3]; 2.0 and 6.2 mg/kg b.i.d.)","dopamine/norepinephrine ratio vs vehicle, mesenteric artery ([3]; 2.0 and 6.2 mg/kg b.i.d., listed as 2a)","dopamine/norepinephrine ratio vs vehicle, cortex and striatum ([3]; 2.0 and 6.2 mg/kg b.i.d., listed as RS-25560-197, hydrochloride)","dopamine levels vs vehicle, cortex, striatum and mesenteric artery ([3]; 2.0 or 6.2 mg/kg b.i.d.)",decrease in pressure [4],acute toxicity [5],"dose with significant increase in dopamine/norepinephrine ratio, left ventricle [6]","dose with significant increase in dopamine/norepinephrine ratio, mesenteric artery [6]","dose with significant increase in dopamine/norepinephrine ratio, cerebral cortex ([6]; only at this dose)",aortic phenylephrine responsiveness [7],plasma renin activity [8],heart rate and systolic blood pressure (tail cuff) [9]
"Fc1cc(F)cc(Cn2cc[nH]c2=S)c1 [SKF 102698, reference compound]",Lack of Effect,,,,,,,,,,,,,,,,,
"Cl.NCc1c[nH]c(=S)n1[C@H]1CCc2c(F)cc(F)cc2C1 [nepicastat, (S)-5-Aminomethyl-1-(5,7-difluoro-1,2,3,4-tetrahydronaphth-2-yl)-2,3-dihydro-2-thioxo-1H-imidazole hydrochloride]",,competitive with tyramine,4.7 ± 0.4 nM,not significantly (p>0.05) different,significantly (p<0.05) lower,marginally (p<0.10) lower,significantly (p<0.05) higher,significantly raised,not significantly (p>0.05) different,not significantly (p>0.05) different,−13 mmHg,Clinical signs of toxicity and death occurred at 1000 and 2500 mg/kg,1.0 mg/kg,3.0 mg/kg,100 mg/kg,restored phenylephrine responsiveness,did not alter plasma renin activity,"did not alter heart rate, or systolic blood pressure"
